Laboratory results as given in US20230158057A1, “COMPOSITIONS AND METHODS FOR THE TREATMENT OF PAIN” (Duke University, priority 2020, published 2023).
“Also recorded” adds a separate entry of the source.

What was measured:
[1] = tested on: mice with intrafemoral Lewis lung carcinoma (LLC); assay: LLC bone cancer pain model, systemic (i.p.) treatment, behavior tests and body weight; type: in vivo, mouse; conditions: for spontaneous and ongoing pain (flinching, guarding): d14; for body weight / cancer-induced cold allodynia / cancer-induced mechanical allodynia (paw withdrawal threshold): twice i.p.; for cancer-induced mechanical allodynia (paw withdrawal threshold): DMXAA, ADU-S100 20 mg/kg, ZA 100 μg/kg; for acute effect on bone cancer pain: d11, 4 h after single i.p. injection
Experimental: Bone cancer pain model. The murine cell lines LLC1, LL/2-Luc2 or E0771 were lightly digested using 0.05% trypsin, followed by centrifugation to remove poorly digested cell clusters. Cells were then resuspended in PBS at a concentration of 1×10^8 cells/ml. The inoculation was performed as previously described (Wang, K. et al. “PD-1 blockade inhibits osteoclast formation and murine bone cancer pain.” The Journal of clinical investigation, (2020); Wang, Z. et al. “Anti-PD-1 treatment impairs opioid antinociception in rodents and nonhuman primates.” Sci Transl Med 12 (2020)). Briefly, mice were anesthetized with 4% isoflurane and the left leg was shaved and the skin disinfected with 10% povidone-iodine and 75% ethanol. A superficial incision (0.5-1 cm) was made near the knee joint, exposing the patellar ligament. […] The syringe contents were slowly injected into the femoral cavity over a 2-minute interval. To prevent further leakage of tumor cells outside of the bone cavity, the outer injection site was sealed with silicone adhesive (Kwik-Sil, World Precision Instruments, US). Animals with surgery related movement dysfunction or with outside bone tumor injection were excluded from the study. Drug treatment. […] All other reagents were dissolved in sterile saline or PBS. For experiments utilizing rabbit anti-IFN-α or -β neutralizing antibodies, a polyclonal rabbit IgG antibody served as the control. […] Behavior tests. All the behavioral tests were conducted in a blinded manner and performed during between the hours of 9:00-16:00. Animals were habituated in a light and humidity controlled testing environment for at least 2 days prior to baseline testing. For Von Frey testing, mice were confined to individual 5×5 cm boxes placed on an elevated wire grid. A blinded experimenter stimulated their hindpaws using a series of von Frey filaments with logarithmically increasing stiffness (0.02-2.56 g, Stoelting). Each filament was applied perpendicularly to the central plantar surface. The 50% paw withdrawal threshold was determined using Dixon's up-down method.

RAW 264.7 cells = assay: In vitro osteoclastogenesis, RANKL-treated RAW 264.7 cells, TRAP staining; type: cell-based, mouse; conditions: RANKL 35 ng/ml, 6 days, escalating dose
Experimental: In vitro induction of osteoclastogenesis and TRAP staining. For in vitro drug treatment, the RAW 264.7 cells were incubated with 35 ng/ml RANKL for six days. Isolated bone marrow cells were cultured overnight in α-MEM media containing 10% fetal bovine serum and 1% antibiotic-antimycotic solution. The suspended cells were collected and incubated with 20 ng/ml MCSF for 3 days to obtain bone marrow-derived macrophage (BMDM). The attached cells were further activated by 35 ng/ml RANKL and 20 ng/ml MCSF. Drug treatment was performed in tandem with RANKL. Culture medium and co-cultured reagents were changed every 3 days. After 6 or 7 days of incubation, the cells were fixed by 4% PFA and stained with warm TRAP staining solution (TRAP kit, Sigma-Aldrich, SLBW4002) for 10-30 min at 37° C.

mice with CIPN = assay: Chemotherapy-induced peripheral neuropathy (CIPN) model established with paclitaxel; type: in vivo, mouse; conditions: i.p., 24 h after the 2nd injection
Experimental: Mouse pain models: The chemotherapy-induced peripheral neuropathy (CIPN) model of chronic neuropathic pain was established as we have done previously, using 8-10-week-old CD-1 (strain #022, Charles River) mice injected with paclitaxel (2 mg/kg i.p.) every other day, with 4 injections total. The chronic constriction injury (CCI) model of neuropathic pain was also produced using 8-10-week-old CD-1 under isoflurane anesthesia. Briefly, the right sciatic nerve was exposed above the hip and two ligatures (7-0 Prolene) were placed around the nerve 1 mm apart located proximal to the trifurcation. Ligatures were loosely tied until a subtle flick of the ipsilateral hind limb was observed. CD-1 mice were also used to establish the SNI model, which was generated by tightly ligating the tibial and common peroneal nerves followed by transection and removal of a ˜3 mm portion of the nerve. […] All mice were housed and monitored in accordance with AAALAC standards and Duke IACUC guidelines that pertained to each model.
Reflexive-based sensory testing in mice: All behavioral testing in mice was performed in a specialized humidity- and light-controlled mouse behavior facility maintained at 21-24° C., with testing conducted between the hours of 8:00-16:00. […] We determined the 50% paw withdrawal threshold using the up-down method. […]

tumor-bearing femora = assay: In vivo X-ray radiography of bone destruction, LLC model; set-up: species or system mouse; conditions: for bone destruction score: LLC model, twice i.p.
Excerpt: In vivo X-ray radiography. Osteolytic bone destruction was continuously evaluated by radiography using the MultiFocus by Faxitron system (Faxitron Bioptics LLC, Tucson, Ariz.). Radiographs of tumor-bearing femora were rated for bone destruction on a 0-5 score scale based on previous study: 0 for normal bone at baseline without tumor inoculation; 1 for one to three radiolucent lesions indicative of bone destruction compared to baseline; 2 for increased number of lesions (three to six lesions) and loss of medullary bone; 3 for loss of medullary bone and erosion of cortical bone; 4 for full-thickness unicortical bone loss; 5 for full-thickness bicortical bone loss and displaced skeletal fracture. All radiographic image quantifications were completed by an experimenter who was blinded to the experimental conditions.

Nc1ncnc2c1ncn2[C@@H]1O[C@@H]2COP(=O)([S-])O[C@@H]3[C@H](O)[C@@H](COP([O-])(=S)O[C@H]2[C@H]1O)O[C@H]3n1cnc2c(N)ncnc21.[Na+].[Na+] (stereo partly drawn) [ADU-S100, (2′-5′)-[P(R)]-5′-O-[(R)-hydroxymercaptophosphinyl]-P-thioadenylyl-adenosine cyclic dinucleotide]
spontaneous and ongoing pain (flinching, guarding) ([1]; LLC model): exhibited reduced spontaneous and ongoing pain
withdrawal frequency to low-threshold stimulation (0.16 g Von Frey filament) ([1]; LLC model, i.p. at d3 and d10): could significantly attenuate mechanical allodynia in both measures on d10 and d14
body weight ([1]; LLC model): no effect on overall body weight
cancer-induced cold allodynia ([1]; LLC model): reduced cold allodynia on both d10 and d14
cancer-induced mechanical allodynia (paw withdrawal threshold) ([1]; LLC model): could significantly attenuate mechanical allodynia in both measures on d10 and d14
acute effect on bone cancer pain [1]: substantial reduction in mechanical allodynia, cold allodynia, and spontaneous pain
osteoclast differentiation (RAW 264.7 cells): dose dependently inhibited osteoclast differentiation
deaths (toxicity with systemic administration) (mice with CIPN): No mice died
bone destruction score (tumor-bearing femora): reduced the bone destruction score at d11 and d15

Cc1ccc2c(=O)c3cccc(CC(=O)O)c3oc2c1C [DMXAA, 2-(5,6-dimethyl-9-oxo-9H-xanthen-4-yl)acetic acid]
mechanical and cold allodynia, WT and Rag1^−/− ([1]; 20 mg/kg i.p. d3 and d7): reduced by DMXAA treatment in both WT and Rag1^−/− mice at early stages (7 d and 10 d), but not at later stages
mechanical and cold allodynia, WT vs Ifnar1^−/− ([1]; 20 mg/kg i.p. d3 and d7): effectively attenuated cancer-induced mechanical allodynia and cold allodynia in WT mice but not Ifnar1^−/− mice
mechanical and cold allodynia, WT vs STING^gt/gt ([1]; 20 mg/kg i.p. d3 and d7): significantly attenuated mechanical and cold allodynia in WT mice, and this effect was abolished in STING^gt/gt mice
mechanical or cold allodynia in Batf3^−/− mice ([1]; 20 mg/kg i.p. d3 and d7): could attenuate mechanical allodynia or cold allodynia in Batf3^−/− mice on d7 and d10 but not day 14
acute effect on mechanical and cold allodynia, WT vs STING^gt/gt or Ifnar1^−/− ([1]; 20 mg/kg i.p., 4 h): could reduce mechanical allodynia and cold allodynia in WT mice but not in STING^gt/gt mice or Ifnar1^−/− mice
spontaneous and ongoing pain (flinching, guarding) ([1]; LLC model): attenuated measures of spontaneous and ongoing pain
body weight ([1]; LLC model): no differences in body weight; also recorded: did not see body weight changes
cancer-induced cold allodynia ([1]; LLC model): significantly reduced
cancer-induced mechanical allodynia (paw withdrawal threshold) ([1]; LLC model): significantly reduced mechanical allodynia on d7, d10 and d14
acute effect on bone cancer pain [1]: substantial reduction in mechanical allodynia, cold allodynia, and spontaneous pain
acute antinociceptive effects, WT vs Ifnar1-cKO ([1]; single 20 mg/kg i.p.): present in WT, but not Ifnar1-cKO littermates
osteoclast differentiation (RAW 264.7 cells): dose dependently inhibited osteoclast differentiation
deaths (toxicity with systemic administration) (mice with CIPN): 3 mice
bone destruction in Batf3^−/− mice (tumor-bearing femora; 20 mg/kg i.p. d3 and d7): reduced bone destruction on d8 and d11 but not d15 in Batf3^−/− mice
bone destruction score, WT and Rag1^−/− (tumor-bearing femora; 20 mg/kg i.p. d3 and d7): improvement in the bone destruction score in both WT and Rag1^−/− mice at d11, but not at d15
bone destruction score, WT vs STING^gt/gt (tumor-bearing femora; 20 mg/kg i.p. d3 and d7): reduction in the bone destruction score in DMXAA-treated WT mice at d11 and d15 after tumor inoculation, and this effect was abolished in STING^gt/gt mice
bone destruction score (tumor-bearing femora): decreased the bone destruction score on d8, d11 and d15
bone destruction score, WT vs Ifnar1^−/− (tumor-bearing femora; d11 and d15): significantly reduced the bone destruction score without changing overall body weight in WT mice, but this effect was abolished in Ifnar1^−/− mice
